Test results from PMC7044277 (Nature Communications, 2020).
Where “and” joins values, the source holds several entries; their conditions need not be identical. Equal values may be shown once.

Experiments:
Assay type in all cases: cell-based
Parameters in all cases: GPCRome screening signal at PTGIR / GPCRome screening signal at PTH1R / GPCRome screening signal at PTH2R / GPCRome screening signal at QRFP / GPCRome screening signal at RXFP2 / GPCRome screening signal at RXFP3 / GPCRome screening signal at RXFP4 / GPCRome screening signal at S1PR2 / GPCRome screening signal at S1PR3 / GPCRome screening signal at S1PR4 / GPCRome screening signal at S1PR5 / GPCRome screening signal at SCTR / GPCRome screening signal at SSTR2 / GPCRome screening signal at SSSTR / GPCRome screening signal at SSTR4 / GPCRome screening signal at SSTR5 / GPCRome screening signal at SUCNR1 / GPCRome screening signal at TA1 / GPCRome screening signal at TAAR2 / GPCRome screening signal at TAAR5 / GPCRome screening signal at TAAR6 / GPCRome screening signal at TAAR8 / GPCRome screening signal at TACR1 / GPCRome screening signal at TACR2 / GPCRome screening signal at TACR3 / GPCRome screening signal at TBXA2R / GPCRome screening signal at TSHR / GPCRome screening signal at UTS2R / GPCRome screening signal at VIPR2 / GPCRome screening signal at GPR68 no V2 Tail / GPCRome screening signal at GRM2 / GPCRome screening signal at GRM3: reference not given here
320 non-olfactory GPCRs [1] = molecular target: T1, 320 non-olfactory GPCRs (Homo sapiens, UniProt Q9UKP6); details: receptor UTS2R
T1 construct: expressed in transfected cells; host or cells: HTLA cells

320 non-olfactory GPCRs [2] = molecular target: T2, 320 non-olfactory GPCRs (Homo sapiens, UniProt Q8WXD0); details: receptor RXFP2
T2 construct: expressed in transfected cells; host or cells: HTLA cells

320 non-olfactory GPCRs [3] = molecular target: T3, 320 non-olfactory GPCRs (Homo sapiens, UniProt Q9BXA5); details: receptor SUCNR1
T3 construct: expressed in transfected cells; host or cells: HTLA cells

320 non-olfactory GPCRs [4] = molecular target: T4, 320 non-olfactory GPCRs (Homo sapiens, UniProt P21452); details: receptor TACR2
T4 construct: expressed in transfected cells; host or cells: HTLA cells

[5] = Fig_5f, single replicate values
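For GPCRome agonism screen response in this document: fold over basal response of each receptor without drug.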

T1 sequence (Q9UKP6 whole entry): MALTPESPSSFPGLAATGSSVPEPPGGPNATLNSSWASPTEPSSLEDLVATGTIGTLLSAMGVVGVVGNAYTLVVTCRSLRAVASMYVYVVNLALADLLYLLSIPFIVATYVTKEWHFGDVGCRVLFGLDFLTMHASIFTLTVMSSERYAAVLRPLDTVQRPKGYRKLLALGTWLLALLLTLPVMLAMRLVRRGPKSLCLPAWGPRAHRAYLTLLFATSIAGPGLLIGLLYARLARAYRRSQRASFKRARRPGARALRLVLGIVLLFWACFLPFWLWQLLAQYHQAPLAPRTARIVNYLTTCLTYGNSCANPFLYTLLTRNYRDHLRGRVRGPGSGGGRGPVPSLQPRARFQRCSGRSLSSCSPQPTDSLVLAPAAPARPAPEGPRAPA
T2 sequence (Q8WXD0 whole entry): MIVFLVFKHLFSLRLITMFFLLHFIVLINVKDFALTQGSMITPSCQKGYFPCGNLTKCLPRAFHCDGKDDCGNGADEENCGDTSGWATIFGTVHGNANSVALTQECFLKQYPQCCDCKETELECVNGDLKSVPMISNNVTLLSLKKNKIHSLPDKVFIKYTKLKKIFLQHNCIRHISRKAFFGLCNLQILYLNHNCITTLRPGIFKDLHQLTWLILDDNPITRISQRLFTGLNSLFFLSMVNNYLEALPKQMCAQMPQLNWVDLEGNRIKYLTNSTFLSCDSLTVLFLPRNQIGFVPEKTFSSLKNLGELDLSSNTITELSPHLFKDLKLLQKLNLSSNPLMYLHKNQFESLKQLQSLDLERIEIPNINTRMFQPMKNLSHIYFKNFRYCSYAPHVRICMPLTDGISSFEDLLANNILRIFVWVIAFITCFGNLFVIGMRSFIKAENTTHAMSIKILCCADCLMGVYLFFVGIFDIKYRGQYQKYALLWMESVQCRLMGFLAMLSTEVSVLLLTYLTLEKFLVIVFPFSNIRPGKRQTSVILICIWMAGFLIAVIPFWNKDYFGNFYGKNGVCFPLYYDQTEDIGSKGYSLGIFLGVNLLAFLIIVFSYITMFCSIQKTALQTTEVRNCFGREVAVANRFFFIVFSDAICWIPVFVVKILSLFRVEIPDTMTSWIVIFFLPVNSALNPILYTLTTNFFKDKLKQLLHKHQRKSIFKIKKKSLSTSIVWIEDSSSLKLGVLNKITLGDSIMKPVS
T3 sequence (Q9BXA5 whole entry): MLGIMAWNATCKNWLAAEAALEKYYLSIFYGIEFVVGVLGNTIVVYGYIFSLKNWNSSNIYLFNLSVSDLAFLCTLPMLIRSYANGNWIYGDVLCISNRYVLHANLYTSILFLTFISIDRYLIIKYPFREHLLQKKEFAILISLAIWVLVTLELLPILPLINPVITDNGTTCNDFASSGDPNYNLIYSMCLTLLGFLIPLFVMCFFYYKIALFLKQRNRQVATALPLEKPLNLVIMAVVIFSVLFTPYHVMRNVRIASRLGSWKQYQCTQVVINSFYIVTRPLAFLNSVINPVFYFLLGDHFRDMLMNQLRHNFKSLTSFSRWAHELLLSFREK
T4 sequence (P21452 whole entry): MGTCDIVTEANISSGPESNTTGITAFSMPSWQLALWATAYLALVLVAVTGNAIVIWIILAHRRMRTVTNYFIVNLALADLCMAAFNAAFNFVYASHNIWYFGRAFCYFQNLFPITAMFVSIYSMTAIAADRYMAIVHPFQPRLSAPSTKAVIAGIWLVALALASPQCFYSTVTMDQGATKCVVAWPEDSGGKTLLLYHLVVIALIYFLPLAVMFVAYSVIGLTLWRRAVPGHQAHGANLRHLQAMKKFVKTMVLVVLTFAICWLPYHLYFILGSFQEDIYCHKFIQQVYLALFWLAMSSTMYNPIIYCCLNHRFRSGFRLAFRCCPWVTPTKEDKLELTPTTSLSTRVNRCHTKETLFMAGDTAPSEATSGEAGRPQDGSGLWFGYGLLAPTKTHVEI

GPCRome screening signal at UTS2R (320 non-olfactory GPCRs [1]; [5])	GPCRome screening signal at RXFP2 (320 non-olfactory GPCRs [2]; [5])	GPCRome screening signal at SUCNR1 (320 non-olfactory GPCRs [3]; [5])	GPCRome screening signal at TACR2 (320 non-olfactory GPCRs [4]; [5])	Compound	GPCRome agonism screen response (320 non-olfactory GPCRs [1]; replicate values, Fig_4g)	GPCRome agonism screen response (320 non-olfactory GPCRs [2]; replicate values, Fig_4g)	GPCRome agonism screen response (320 non-olfactory GPCRs [3]; replicate values, Fig_4g)	GPCRome agonism screen response (320 non-olfactory GPCRs [4]; replicate values, Fig_4g)
–	–	–	–	CCOc1cccc2cc(C(C)NCC3(O)CCCCC3)oc12 (centres unmarked) [O4LE6]	1.786 and 2.312 and 1.032	0.9912 and 0.8618 and 0.6803 and 0.6522	2.7145 and 1.744 and 1.03 and 1.189	0.5287 and 0.4964 and 0.9933 and 0.8884
1.327 and 1.1644 and 2.664 and 0.5292	1.049 and 1.08 and 1.42 and 0.7752	2.588 and 2.79 and 1.592 and 0.9771	1.32 and 1.667 and 1.261 and 1.267	CCOc1ccccc1CCC(C)NCC1(O)CCCCC1.Cl (racemic) [Fig_5f]	–	–	–	–
